Data taken from PubChem BioAssay AID200 (DTP/NCI, 2004).
Where “and” joins values, the source holds several entries; their conditions need not be identical. Equal entries are not always repeated. Toxic doses and inconclusive results are not listed. Where a SMILES comes first, the peptide text is derived from it. [ ]: non-standard residue; d: D form. The star is where a group is joined. ξ: configuration not given here. Cbz = O=C(OCc1ccccc1)*; Nva = CCC[CH](N)C(=O)O; OBn = c1ccc(CO*)cc1; Bn = c1ccc(C*)cc1; ξC = NC(CS)C(=O)O

System: B6C3F1 mice, B16 melanoma ip, median survival T/C
Test: NCI In Vivo Anticancer Drug Screen. Data for tumor model B16 Melanoma (intraperitoneal) in B6C3F1 mice
Settings: endpoint: median survival time, higher = longer survival
Summary of the method: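 Readout: survival or tumor size in treated mice relative to vehicle controls (T/C). Model uses transplantable tumors grown in mice.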

[1] = dose: 12.5 mg/kg/injection, schedule: Q01DX009 (ip), vehicle: saline with Tween-80
[2] = dose: 25.0 mg/kg/injection, schedule: Q01DX009 (ip), vehicle: saline with Tween-80
[3] = dose: 50.0 mg/kg/injection, schedule: Q01DX009 (ip), vehicle: saline with Tween-80
[4] = dose: 100.0 mg/kg/injection, schedule: Q01DX009 (ip), vehicle: saline with Tween-80
[5] = dose: 12.5 mg/kg/injection, schedule: Q01DX009 (ip), vehicle: saline
[6] = dose: 25.0 mg/kg/injection, schedule: Q01DX009 (ip), vehicle: saline
[7] = dose: 50.0 mg/kg/injection, schedule: Q01DX009 (ip), vehicle: saline
[8] = dose: 200.0 mg/kg/injection, schedule: Q01DX009 (ip), vehicle: saline with Tween-80
[9] = dose: 100.0 mg/kg/injection, schedule: Q01DX009 (ip), vehicle: saline
[10] = dose: 200.0 mg/kg/injection, schedule: Q01DX009 (ip), vehicle: saline
[11] = dose: 400.0 mg/kg/injection, schedule: Q01DX009 (ip), vehicle: saline
[12] = dose: 200.0 mg/kg/injection, schedule: Q01DX009 (ip), vehicle: Klucel (hydroxypropylcellulose) (HPC)
[13] = dose: 100.0 mg/kg/injection, schedule: Q01DX009 (ip), vehicle: Klucel (hydroxypropylcellulose) (HPC)
[14] = dose: 400.0 mg/kg/injection, schedule: Q01DX009 (ip), vehicle: Klucel (hydroxypropylcellulose) (HPC)

For `CNC(=O)OCc1c(COC(=O)NC)c(-c2ccccc2)n(C)c1-c1ccccc1`, the T/C (dose: 12.5 mg/kg/injection, schedule: Q01DX009 (ip), vehicle: distilled water + Tween-80) was 172 % of control and the T/C (dose: 25.0 mg/kg/injection, schedule: Q01DX009 (ip), vehicle: distilled water + Tween-80) was 177 % of control.

With `Oc1cccc2ccccc12` the T/C (dose: 25.0 mg/kg/injection, schedule: Q01DX009 (sc), vehicle: other) was 97 % of control, the T/C (dose: 50.0 mg/kg/injection, schedule: Q01DX009 (sc), vehicle: other) was 94 % of control and the T/C (dose: 100.0 mg/kg/injection, schedule: Q01DX009 (sc), vehicle: other) was 100 % of control. For the same molecule, the T/C (dose: 200.0 mg/kg/injection, schedule: Q01DX009 (sc), vehicle: other) was 92 % of control.

In the case of `CN=C(N)N/N=C(\C)c1ccc2c(c1)Cc1ccccc1-2`, the T/C [1] is reported as 111 % of control, the T/C [2] is reported as 118 % of control and the T/C [3] is reported as 119 % of control. For the same molecule, the T/C [4] was 122 % of control.

`COc1ccc2c(c1)/C(=C/CCN(C)C)c1ccccc1S2` was tested, and the T/C [5] was 101 % of control, the T/C [6] was 101 % of control and the T/C [7] was 101 % of control.

For `CCOC(=O)c1c(C)c(C(=O)OCC)n(CC)c1C=O`, the T/C [3] was 86 % of control, the T/C [4] was 89 % of control and the T/C [8] was 93 % of control.

In the case of `Cc1cc(O)c(Cl)cc1Cl`, the T/C [9] is reported as 92 % of control, the T/C [10] is reported as 87 % of control and the T/C [11] is reported as 90 % of control.

`Cc1ccc(N=NN(C)C)cc1` was tested, and the T/C [2] was 100 % of control, the T/C [3] was 110 % of control and the T/C [4] was 107 % of control.

`CCOC(=O)C(Cc1c[nH]c2ccccc12)NC(=O)C(Cc1ccccc1)NC(=O)C(Cc1cnc[nH]1)NC(=O)OCc1ccccc1` (stereo not drawn) (Cbz-His-Phe-Trp-OEt; configuration not given here) was tested, and the T/C [12] was 90 % of control.

With `OC1CC2CCCCC2CC1c1ccccc1` (stereo not drawn) the T/C (dose: 25.0 mg/kg/injection, schedule: Q04DX003 (ip), vehicle: saline with Tween-80) was 95 % of control, the T/C (dose: 50.0 mg/kg/injection, schedule: Q04DX003 (ip), vehicle: saline with Tween-80) was 114 % of control and the T/C (dose: 100.0 mg/kg/injection, schedule: Q04DX003 (ip), vehicle: saline with Tween-80) was 104 % of control. For the same molecule, the T/C (dose: 200.0 mg/kg/injection, schedule: Q04DX003 (ip), vehicle: saline with Tween-80) was 93 % of control and the T/C (dose: 400.0 mg/kg/injection, schedule: Q04DX003 (ip), vehicle: saline with Tween-80) was 92 % of control.

In the case of `Oc1ccc(O)cc1`, the T/C (dose: 3.13 mg/kg/injection, schedule: Q01DX009 (ip), vehicle: saline) is reported as 101 % of control, the T/C (dose: 6.25 mg/kg/injection, schedule: Q01DX009 (ip), vehicle: saline) is reported as 88 % of control and the T/C [5] is reported as 95 % of control. The T/C [6] was 110 % of control and the T/C [7] was 98 % of control.

In the case of `O=C(CNC(=O)C(CSCc1ccccc1)NC(=O)OCc1ccccc1)NCC(=O)OCc1ccccc1` (stereo not drawn) (Cbz-[ξC](Bn)-Gly-Gly-OBn), the T/C (dose: 12.5 mg/kg/injection, schedule: Q01DX009 (ip), vehicle: Klucel (hydroxypropylcellulose) (HPC)) is reported as 92 % of control and the T/C (dose: 25.0 mg/kg/injection, schedule: Q01DX009 (ip), vehicle: Klucel (hydroxypropylcellulose) (HPC)) is reported as 88 % of control.

`C=C1C(=O)C2=CC1CCC(=O)C1(C)CCC(OC(C)=O)C(C)(C)C1CC2O` (stereo not drawn) was tested, and the T/C (dose: 1.88 mg/kg/injection, schedule: Q01DX009 (ip), vehicle: Klucel (hydroxypropylcellulose) (HPC)) was 96 % of control, the T/C (dose: 3.75 mg/kg/injection, schedule: Q01DX009 (ip), vehicle: Klucel (hydroxypropylcellulose) (HPC)) was 104 % of control and 106 % of control and the T/C (dose: 7.5 mg/kg/injection, schedule: Q01DX009 (ip), vehicle: Klucel (hydroxypropylcellulose) (HPC)) was 111 % of control and 89 % of control. For the same molecule, the T/C (dose: 15.0 mg/kg/injection, schedule: Q01DX009 (ip), vehicle: Klucel (hydroxypropylcellulose) (HPC)) was 114 % of control and 100 % of control and the T/C (dose: 30.0 mg/kg/injection, schedule: Q01DX009 (ip), vehicle: Klucel (hydroxypropylcellulose) (HPC)) was 118 % of control and 104 % of control.

`O=c1nc(Oc2ccccc2)nc2ncccn12` was tested, and the T/C (dose: 3.12 mg/kg/injection, schedule: Q01DX009 (ip), vehicle: saline with Tween-80) was 108 % of control and 101 % of control and 102 % of control.

For `O=c1[nH]cc(O)c(=O)[nH]1`, the T/C (dose: 50.0 mg/kg/injection, schedule: Q01DX009 (ip), vehicle: Klucel (hydroxypropylcellulose) (HPC)) was 102 % of control, the T/C [13] was 96 % of control and the T/C [12] was 103 % of control.

`CNc1c(NC)n(C)c(=O)n(C)c1=O` was tested, and the T/C [9] was 92 % of control, the T/C [10] was 100 % of control and the T/C [11] was 96 % of control.

In the case of `CCC(=O)Sc1ccccc1C(=O)Nc1ccc(Cl)cc1`, the T/C [2] is reported as 104 % of control, the T/C [3] is reported as 117 % of control and the T/C [4] is reported as 108 % of control. For the same molecule, the T/C [8] was 115 % of control.

With `C/C(=N\NC(=O)c1ccccc1O)c1cccc(/C(C)=N/NC(=O)c2ccccc2O)n1` the T/C (dose: 3.0 mg/kg/injection, schedule: Q01DX009 (ip), vehicle: saline) was 102 % of control and the T/C (dose: 6.0 mg/kg/injection, schedule: Q01DX009 (ip), vehicle: saline) was 96 % of control.

`CCC[CH2][Sn]1([CH2]CCC)[O]C2C(CO)OC(n3ccc(N)nc3=O)C2[O]1` (stereo not drawn) was tested, and the T/C (dose: 0.05 mg/kg/injection, schedule: Q01DX009 (ip), vehicle: Klucel (hydroxypropylcellulose) (HPC)) was 94 % of control, the T/C (dose: 0.1 mg/kg/injection, schedule: Q01DX009 (ip), vehicle: Klucel (hydroxypropylcellulose) (HPC)) was 90 % of control and the T/C (dose: 0.2 mg/kg/injection, schedule: Q01DX009 (ip), vehicle: Klucel (hydroxypropylcellulose) (HPC)) was 101 % of control. For the same molecule, the T/C (dose: 0.4 mg/kg/injection, schedule: Q01DX009 (ip), vehicle: Klucel (hydroxypropylcellulose) (HPC)) was 95 % of control.

For `CC1C(=O)c2cc3c(cc2CCN(C)Cc2c1ccc1c2OCO1)OCO3` (stereo not drawn), the T/C (dose: 5.0 mg/kg/injection, schedule: Q01DX009 (ip), vehicle: saline with Tween-80) was 100 % of control, the T/C (dose: 10.0 mg/kg/injection, schedule: Q01DX009 (ip), vehicle: saline with Tween-80) was 104 % of control and the T/C (dose: 20.0 mg/kg/injection, schedule: Q01DX009 (ip), vehicle: saline with Tween-80) was 103 % of control.

`C=C(C)C(=O)OC1CC(C)(O)C2(O)CCC(C)(/C=C3\OC(=O)C(COC(C)=O)=C31)O2` (stereo not drawn) was tested, and the T/C (dose: 0.62 mg/kg/injection, schedule: Q01DX009 (ip), vehicle: distilled water + Tween-80 + alcohol) was 96 % of control, the T/C (dose: 1.25 mg/kg/injection, schedule: Q01DX009 (ip), vehicle: distilled water + Tween-80 + alcohol) was 105 % of control and the T/C (dose: 2.5 mg/kg/injection, schedule: Q01DX009 (ip), vehicle: distilled water + Tween-80 + alcohol) was 92 % of control. The T/C (dose: 5.0 mg/kg/injection, schedule: Q01DX009 (ip), vehicle: distilled water + Tween-80 + alcohol) was 89 % of control.

`CN(CC(=O)O)C(=O)CNC(=O)CNC(=O)OCc1ccccc1` (HELM PEPTIDE1{[O=C(OCc1ccccc1)[*:2]].G.G.[Sar]}$$$$V2.0) was tested, and the T/C [13] was 104 % of control, the T/C [12] was 107 % of control and the T/C [14] was 98 % of control.

`NCC(O)c1ccc(O)c(O)c1` (stereo not drawn) was tested, and the T/C (dose: 0.39 mg/kg/injection, schedule: Q01DX009 (ip), vehicle: suspension in saline) was 109 % of control, the T/C (dose: 0.75 mg/kg/injection, schedule: Q01DX009 (ip), vehicle: suspension in saline) was 96 % of control and the T/C (dose: 1.5 mg/kg/injection, schedule: Q01DX009 (ip), vehicle: suspension in saline) was 103 % of control. The T/C (dose: 3.0 mg/kg/injection, schedule: Q01DX009 (ip), vehicle: suspension in saline) was 100 % of control, the T/C (dose: 6.0 mg/kg/injection, schedule: Q01DX009 (ip), vehicle: suspension in saline) was 100 % of control and 106 % of control and the T/C (dose: 12.0 mg/kg/injection, schedule: Q01DX009 (ip), vehicle: suspension in saline) was 124 % of control and 105 % of control. The T/C (dose: 24.0 mg/kg/injection, schedule: Q01DX009 (ip), vehicle: suspension in saline) was 100 % of control.

For `CCCC(NC(=O)OCc1ccccc1)C(=O)NC(CC(C)C)C(N)=O` (stereo not drawn) (Cbz-[Nva]-Leu-NH2; configuration not given here), the T/C [13] was 98 % of control, the T/C [12] was 94 % of control and the T/C [14] was 97 % of control.

With `CC(C)CC(NC(=O)CN)C(=O)O` (stereo not drawn) the T/C [4] was 101 % of control, the T/C [8] was 95 % of control and the T/C (dose: 400.0 mg/kg/injection, schedule: Q01DX009 (ip), vehicle: saline with Tween-80) was 97 % of control.

`BrC1c2cccc3cccc(c23)C1Br` (stereo not drawn) was tested, and the T/C [1] was 123 % of control and the T/C [3] was 155 % of control.

For `Cc1ccc2nc(-c3ccc4nc(-c5ccc(N=Nc6ccc(-c7nc8ccc(-c9nc%10ccc(C)c(S(=O)(=O)O)c%10s9)cc8s7)cc6)cc5)sc4c3)sc2c1S(=O)(=O)O`, the T/C [5] was 87 % of control, the T/C [6] was 86 % of control and the T/C [9] was 88 % of control.

For `OCC[N+]12CN3CN(CN(C3)C1)C2`, the T/C [6] was 101 % of control, the T/C [7] was 109 % of control and the T/C [9] was 103 % of control. The T/C [10] was 108 % of control and the T/C [11] was 108 % of control.

`CC(=O)c1ccc(C)cc1C` was tested, and the T/C [2] was 105 % of control, the T/C [3] was 92 % of control and the T/C [4] was 98 % of control.
